{"source": "patent US11193164B2", "about": "“Methods of diagnosing and treating cancer targeting extrachromosomal DNA” (The Regents of the University of California, priority 2017, dated 2021)", "key": {"GBM39 cells [1]": {"tested_on": "GBM39 cells", "assay": "Next generation sequencing fine structure analysis of EGFRvIII amplification in GBM39 cultures", "format": "cell-based, human", "details": "Erlotinib Treatment (ERZ) sample (row 4), FIG. 13B, naive samples 110 to 150"}, "GBM39 cells [2]": {"tested_on": "GBM39 cells", "assay": "FISH images of EGFRvIII amplification (extrachromosomal or chromosomal DNA) in GBM39 cells", "format": "cell-based, human", "details": "FIG. 13A", "protocol": "Cytogenetics. Metaphase cells were obtained by treating cells with Karyomax (Gibco) at a final concentration of 0.01 μg/ml for 1-3 hours. Cells were collected, washed in PBS, and resuspended in 0.075 M KCl for 15-30 minutes. Carnoy's fixative (3:1 methanol/glacial acetic acid) was added dropwise to stop the reaction. Cells were washed an additional 3 times with Carnoy's fixative, before being dropped onto humidified glass sides for metaphase cell preparations. For ECdetect analyses, DAPI was added to the slides. Images in the main figures were captured with an Olympus FV1000 confocal microscope. All other images were captured at a magnification of 1000 with an Olympus BX43 microscope equipped with a QiClick cooled camera. FISH was performed by adding the appropriate DNA FISH probe onto the fixed metaphase spreads. A coverslip was added and sealed with rubber cement. DNA denaturation was carried out at 75° C. for 3-5 minutes and the slides were allowed to hybridize overnight at 37° C. in a humidified chamber. Slides were subsequently washed in 0.4×SSC at 50° C. for 2 minutes, followed by a final wash in 2×SSC/0.05% Tween-20. Metaphase cells and interphase nuclei were counterstained with DAPI, a coverslip was applied, and images were captured."}}, "data": [{"smiles": "C#Cc1cccc(Nc2ncnc3cc(OCCOC)c(OCCOC)cc23)c1", "note": "[Erlotinib]", "values": [{"measurement": "Average copy numbers of amplified intervals as determined from sequencing analysis", "setting": "GBM39 cells [1]", "value": 5.4}, {"measurement": "Location of EGFRvIII amplification in FISH images", "setting": "GBM39 cells [2]; GBM39 cells after Drug Withdrawal", "value": "EC amplification"}, {"measurement": "Location of EGFRvIII amplification in FISH images", "setting": "GBM39 cells [2]; GBM39 cells in response to Erlotinib Treatment (ERZ), naive cells EC amplification", "value": "HSR amplification"}]}]}
